The text below walks through data of EP0591765A2, “1,4-Dihydropyridine-alkoxy and alkylamino esters as antihypertensives” (BAYER AG, priority 1992, dated 1994).

The subject of this assay is SH-Ratte. Description: Blood pressure lowering in conscious spontaneously hypertensive rats (tail cuff, oral dosing). Type of assay: in vivo. Particulars: Rattus norvegicus; SH-Ratte: Blutdrucksenkung >15 mm; intragastral ("oral") in Tylosesuspension; read-out: Grenzdosis. The text has this: Die Substanzen wurden an der wachen Ratte auf ihre blutdrucksenkende Wirkung hin untersucht. An wachen Ratten mit genetisch bedingtem Hochdruck ("spontan hypertone Ratten" des Okamoto-Stammes) wird der arterielle Blutdruck mit der "Schwanz-Manchette" in definierten Zeitabständen nach Substanzgabe unblutig gemessen. Die zu prüfenden Substanzen werden aufgeschwemmt in einer Tylosesuspension intragastral ("oral") per Schlundsonde in verschiedenen Dosen appliziert. Die erfindungsgemäßen Verbindungen senken den arteriellen Blutdruck der Hochdruckratten in klinisch relevanter Dosierung.

`COC(=O)C1=C(C)NC(C)=C(C(=O)OCCOC(=O)c2ccccc2OC(C)=O)C1c1ccccc1C(F)(F)F` (stereo not drawn) [Beispiel 1, 5-[2-(2-Acetoxybenzoyloxy)ethoxycarbonyl]-2,6-dimethyl-4-(2-trifluormethylphenyl)-1,4-dihydropyridin-3-carbonsäuremethylester]: the minimal effective dose amounted to 10 mg/kg. Turning to `CC(=O)Oc1ccccc1C(=O)OCCOC(=O)C1=C(C)NC(C)=C(C(=O)OC(C)C)C1c1ccccc1[N+](=O)[O-]` (stereo not drawn) [Beispiel 2], the minimal effective dose worked out at 30 mg/kg. The value for `CC(=O)Oc1ccccc1C(=O)OCCOC(=O)C1=C(C)NC(C)=C(C(=O)OC(C)C)C1c1ccccc1C(F)(F)F` (stereo not drawn) [Beispiel 3] was 10 mg/kg; that for `CC(=O)Oc1ccccc1C(=O)OCCOC(=O)C1=C(C)NC(C)=C(C(=O)OC(C)C)C1c1ccccc1Cl` (stereo not drawn) [Beispiel 4] was 30 mg/kg; that for `CCOC(=O)C1=C(C)NC(C)=C(C(=O)OCCOC(=O)c2ccccc2OC(C)=O)C1c1ccccc1C(F)(F)F` (stereo not drawn) [Beispiel 5, 5-[2-(2-Acetoxybenzoyloxy)ethoxycarbonyl]-2,6-dimethyl-4-(2-trifluormethylphenyl)-1,4-dihydropyridin-3-carbonsäureethylester] was 10 mg/kg. The value for `COC(=O)C1=C(C)NC(C)=C(C(=O)OCCOC(=O)c2ccccc2OC(C)=O)C1c1cccc(Cl)c1Cl` (stereo not drawn) [Beispiel 6, 5-[2-(2-Acetoxybenzoyloxy)ethoxycarbonyl]-2,6-dimethyl-4-(2,3-dichlorphenyl)-1,4-dihydropyridin-3-carbonsäuremethylester] was 3 mg/kg.
